This passage reports IC50 results from patent publication US8877741B2, “Pyrrolidine derivatives, pharmaceutical compositions and uses thereof” (Boehringer Ingelheim International GmbH, priority 2013, dated 2014).

human ACC2, sequence (O00763 129-2458): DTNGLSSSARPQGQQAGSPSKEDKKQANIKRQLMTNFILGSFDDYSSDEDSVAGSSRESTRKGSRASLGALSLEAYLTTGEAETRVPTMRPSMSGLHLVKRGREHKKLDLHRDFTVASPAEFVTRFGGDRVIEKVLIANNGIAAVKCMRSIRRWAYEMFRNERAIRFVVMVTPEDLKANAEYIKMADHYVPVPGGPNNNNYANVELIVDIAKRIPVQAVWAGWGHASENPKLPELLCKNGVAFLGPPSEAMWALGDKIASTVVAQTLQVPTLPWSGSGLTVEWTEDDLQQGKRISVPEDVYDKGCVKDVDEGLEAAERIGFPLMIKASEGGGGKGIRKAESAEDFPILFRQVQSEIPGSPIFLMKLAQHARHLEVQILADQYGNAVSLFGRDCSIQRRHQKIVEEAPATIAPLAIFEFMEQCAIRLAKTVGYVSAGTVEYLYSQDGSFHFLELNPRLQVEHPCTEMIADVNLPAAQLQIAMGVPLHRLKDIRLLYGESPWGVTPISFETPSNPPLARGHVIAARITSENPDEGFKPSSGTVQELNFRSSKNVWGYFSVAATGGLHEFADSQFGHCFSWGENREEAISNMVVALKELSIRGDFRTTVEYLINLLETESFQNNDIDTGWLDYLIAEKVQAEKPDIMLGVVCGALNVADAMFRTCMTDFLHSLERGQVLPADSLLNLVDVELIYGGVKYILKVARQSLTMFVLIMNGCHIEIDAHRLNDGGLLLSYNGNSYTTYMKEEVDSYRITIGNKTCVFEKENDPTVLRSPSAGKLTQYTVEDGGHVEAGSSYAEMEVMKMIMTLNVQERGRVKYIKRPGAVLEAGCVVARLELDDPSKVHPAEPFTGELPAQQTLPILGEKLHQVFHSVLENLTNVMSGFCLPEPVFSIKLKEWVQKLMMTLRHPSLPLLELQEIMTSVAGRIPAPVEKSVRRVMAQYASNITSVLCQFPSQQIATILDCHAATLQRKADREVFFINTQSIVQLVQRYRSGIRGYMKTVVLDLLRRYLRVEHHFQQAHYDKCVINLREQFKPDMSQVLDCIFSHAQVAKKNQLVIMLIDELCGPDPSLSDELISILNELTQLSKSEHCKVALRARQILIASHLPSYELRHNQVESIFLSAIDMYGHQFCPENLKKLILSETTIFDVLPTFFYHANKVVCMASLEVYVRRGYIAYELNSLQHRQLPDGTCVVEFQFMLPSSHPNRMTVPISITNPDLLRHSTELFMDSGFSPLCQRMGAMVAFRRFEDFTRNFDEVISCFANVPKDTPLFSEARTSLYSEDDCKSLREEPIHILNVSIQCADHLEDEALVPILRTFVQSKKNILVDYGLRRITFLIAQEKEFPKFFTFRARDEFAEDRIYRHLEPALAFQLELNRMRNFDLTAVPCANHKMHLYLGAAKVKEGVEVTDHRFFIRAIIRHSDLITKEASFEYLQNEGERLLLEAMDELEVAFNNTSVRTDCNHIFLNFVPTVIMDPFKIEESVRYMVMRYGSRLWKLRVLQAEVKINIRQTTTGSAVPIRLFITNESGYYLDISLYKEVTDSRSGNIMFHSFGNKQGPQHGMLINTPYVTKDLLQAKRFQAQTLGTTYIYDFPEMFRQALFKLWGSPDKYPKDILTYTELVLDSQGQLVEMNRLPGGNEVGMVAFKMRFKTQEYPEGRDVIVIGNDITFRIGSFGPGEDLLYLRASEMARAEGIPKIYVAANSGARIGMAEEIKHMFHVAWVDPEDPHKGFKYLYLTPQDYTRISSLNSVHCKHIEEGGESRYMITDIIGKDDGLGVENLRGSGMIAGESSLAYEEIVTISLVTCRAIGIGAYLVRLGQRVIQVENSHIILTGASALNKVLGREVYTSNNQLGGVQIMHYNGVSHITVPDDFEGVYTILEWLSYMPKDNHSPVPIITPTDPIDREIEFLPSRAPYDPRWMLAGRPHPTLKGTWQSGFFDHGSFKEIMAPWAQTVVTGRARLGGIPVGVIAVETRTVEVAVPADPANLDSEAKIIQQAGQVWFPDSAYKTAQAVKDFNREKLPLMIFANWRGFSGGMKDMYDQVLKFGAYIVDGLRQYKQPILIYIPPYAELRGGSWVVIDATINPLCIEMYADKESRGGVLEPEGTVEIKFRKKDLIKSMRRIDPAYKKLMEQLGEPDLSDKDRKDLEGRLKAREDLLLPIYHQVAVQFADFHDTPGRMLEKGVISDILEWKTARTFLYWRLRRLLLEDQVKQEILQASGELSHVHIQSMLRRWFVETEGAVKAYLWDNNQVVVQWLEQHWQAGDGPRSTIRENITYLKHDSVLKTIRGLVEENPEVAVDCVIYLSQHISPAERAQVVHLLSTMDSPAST

The target in the assay is human ACC2 (Homo sapiens (Human), UniProt O00763). The assay can be described thus: ACC2 assay, spectrophotometric 384 well assay (NADH-linked kinetic method). Format: biochemical. The conditions noted are these: human ACC2 construct lacking the 128 N-terminal amino acids; coupled lactate dehydrogenase/pyruvate kinase reaction, 340 nm, 25° C. As for the experimental part:
Spectrophotometric 384 Well Assay
Malonyl CoA formation by acetyl CoA carboxylases is stoichometrically linked to the consumption of ATP. ACC2 activity is measured in a NADH-linked kinetic method measuring ADP generated during the ACC reaction using a coupled lactate dehydrogenase/pyruvate kinase reaction.
For biological testing, a human ACC2 construct which lacks the 128 amino acids at the N-terminus for increased solubility (nt 385-6966 in Genbank entry AJ575592) is cloned. The protein is then expressed in insect cells using a baculoviral expression system. Protein purification is performed by anion exchange.
All compounds are dissolved in dimethyl sulfoxide (DMSO) to a concentration of 10 mM.
The enzymatic reaction is then started by addition of a mixture of NADH, acetyl Coenzyme A (both 2000 μM f.c.) and ATP (500 uM f.c.). The decrease of the optical density (slope S) is then determined at 25° C. at a wavelength of 340 nm over 15 minutes in a spectrophotometric reader.
Each assay microtiter plate contains wells with vehicle instead of compound as controls for the non-inhibited enzyme (100% CTL; ‘HIGH’) and wells without acetyl-CoA as controls for non-specific NADH degradation (0% CTL; ‘LOW’).
The slope S is used for calculation of % CTL=(S(compound)−S(‘LOW’))/(S(‘HIGH’)−S(‘LOW’))*100.
For IC50 value determination, the sample slope in the presence of the test compound after subtraction of the low controls (S(compound)−S(‘LOW’)) are used.
An IC50 value is derived from the compound slopes at different dosages after subtraction of the low controls (S(compound)−S(‘LOW’)) by non-linear regression curve fitting (equation y=(A+((B−A)/(1+((C/x)^D))))).
As to `CC(=O)N[C@@H](C)c1ccc(OC2CCN(c3ccc(F)c(C)n3)C2)cc1` (stereo partly shown) [Example 1.65], the midpoint of inhibition, the IC50, lay at 107 nM.
Then `CC(=O)N[C@@H](C)c1ccc(OC2CCN(c3ccc(OC4CC4)cn3)C2)cc1` (stereo partly shown) [Example 1.66], with 384 nM.
Then `CC(=O)N[C@@H](C)c1ccc(OC2CCN(c3ncc(OC4CC4)cc3F)C2)cc1` (stereo partly shown) [Example 1.67], with 463 nM; and `CC(=O)N[C@@H](C)c1ccc(OC2CCN(c3ccnc(Oc4cccnc4)c3)C2)cc1` (stereo partly shown) [Example 1.68], with 354 nM.
Take `CSc1ccc(N2CCC(Oc3ccc([C@H](C)NC(C)=O)cc3)C2)nc1` (stereo partly shown) [Example 1.69]: half-maximal inhibition (IC50) was put at 387 nM. This IC50 and that of the molecule before are within 1.5-fold of each other.
Take `CC(=O)N[C@@H](C)c1ccc(OC2CCN(c3ccc(C4CC4)cn3)C2)cc1` (stereo partly shown) [Example 1.70]: the half-inhibitory concentration (IC50) – broadly, the concentration needed to halve the response being measured – turned out to be 722 nM.
Then `CCCOc1cnc(N2CCC(Oc3ccc([C@H](C)NC(C)=O)cc3)C2)c(Cl)c1` (stereo partly shown) [Example 1.71], with 88 nM; and `CCCOc1cc(N2CCC(Oc3ccc([C@H](C)NC(C)=O)cc3)C2)c(F)cn1` (stereo partly shown) [Example 1.72], with 70 nM; and `CC(=O)N[C@@H](C)c1ccc(OC2CCN(c3cc(OCC4CC4)ncc3F)C2)cc1` (stereo partly shown) [Example 1.73], with 59 nM.
The same measure for `CC(=O)N[C@@H](C)c1ccc(OC2CCN(c3cc(OC(C)C)ncc3F)C2)cc1` (stereo partly shown) [Example 1.74]: 100 nM.
The same measure for `CC(=O)N[C@@H](C)c1ccc(OC2CCN(c3cc(OCC(C)C)ncc3F)C2)cc1` (stereo partly shown) [Example 1.75]: 30 nM; for `CC(=O)N[C@@H](C)c1ccc(OC2CCN(c3cc(OCC4CC4(F)F)ncc3F)C2)cc1` (stereo partly shown) [Example 1.76]: 63 nM; for `CC(=O)N[C@@H](C)c1ccc(OC2CCN(c3ncc(OCC4CC4(F)F)cc3Cl)C2)cc1` (stereo partly shown) [Example 1.77]: 29 nM.
`CCOc1cnc(N2CCC(Oc3ccc([C@H](C)NC(C)=O)cc3)C2)c(Cl)c1` (stereo partly shown) [Example 1.78] returned a 50% inhibitory concentration (IC50) of 198 nM.
The same measure for `CC(=O)N[C@@H](C)c1ccc(OC2CCN(c3cccc(C4(S(C)(=O)=O)CC4)n3)C2)cc1` (stereo partly shown) [Example 1.79]: 950 nM; for `COc1cc(OCC2CC2)cnc1N1CCC(Oc2ccc([C@H](C)NC(C)=O)cc2)C1` (stereo partly shown) [Example 1.80]: 484 nM; for `COc1cc(OCC2CC2(F)F)cnc1N1CCC(Oc2ccc([C@H](C)NC(C)=O)cc2)C1` (stereo partly shown) [Example 1.81]: 425 nM.
The same measure for `C[C@H](NC(=O)c1cncs1)c1ccc(O[C@@H]2CCN(c3ccc(OCCCF)cn3)C2)cc1` [Example 1.82]: 110 nM.
Then `CSc1ccc(N2CCC(Oc3ccc([C@H](C)NC(C)=O)cc3)C2)cn1` (stereo partly shown) [Example 1.83], with 2990 nM.
Molecule `CC(=O)N[C@@H](C)c1ccc(OC2CCN(c3cccc(C4CCCC4)n3)C2)cc1` (stereo partly shown) [Example 1.84] returned an IC50 of 115 nM.
Then `Cc1cccc(N2CC[C@@H](Oc3ccc([C@H](C)NC(=O)c4cncs4)cc3)C2)n1` [Example 1.85], with 107 nM.
Then `CC(=O)N[C@@H](C)c1ccc(OC2CCN(c3cccc(C4CCC4)n3)C2)cc1` (stereo partly shown) [Example 1.86], with 89 nM; and `CC(=O)N[C@@H](C)c1ccc(OC2CCN(c3ccc(OCC(C)(C)F)cn3)C2)cc1` (stereo partly shown) [Example 1.87], with 677 nM.
Then `CC(=O)N[C@@H](C)c1ccc(OC2CCN(c3ccc(OCCCF)nc3)C2)cc1` (stereo partly shown) [Example 1.88], with 423 nM; and `CC(=O)N[C@@H](C)c1ccc(OC2CCN(c3cc(OCC4CC4(F)F)ncc3C)C2)cc1` (stereo partly shown) [Example 1.89], with 278 nM; and `CCCOc1cc(N2CCC(Oc3ccc([C@H](C)NC(C)=O)cc3)C2)c(C)cn1` (stereo partly shown) [Example 1.90], with 379 nM.
For `CC(=O)N[C@@H](C)c1ccc(OC2CCN(c3ccc(OCC(C)(F)F)cn3)C2)cc1` (stereo partly shown) [Example 1.91], the IC50 is 661 nM.
Then `CC(=O)N[C@@H](C)c1ccc(OC2CCN(c3cc(OCC(F)F)ncc3C)C2)cc1` (stereo partly shown) [Example 1.92], with 524 nM; and `CC(=O)N[C@@H](C)c1ccc(OC2CCN(c3ccc(OCCC(F)F)cn3)C2)cc1` (stereo partly shown) [Example 1.93], with 107 nM; and `CC(=O)N[C@@H](C)c1ccc(OC2CN(c3ccc(OCC4CC4(F)F)cn3)C[C@H]2F)cc1` (stereo partly shown) [Example 1.94], with 94 nM.
The same measure for `CCOc1nccc(N2CC[C@@H](Oc3ccc([C@H](C)NC(C)=O)cc3)C2)c1OC` [Example 1.95]: 82 nM; for `CC(=O)N[C@@H](C)c1ccc(O[C@@H]2CCN(c3ccc(OCC4CC4)cn3)C2)cc1` [Example 1.96]: 114 nM; for `CCN(C)c1ccnc(N2CC[C@@H](Oc3ccc([C@H](C)NC(C)=O)cc3)C2)c1F` [Example 1.97]: 970 nM.
Then `CC(=O)N[C@@H](C)c1ccc(O[C@@H]2CCN(c3nccc(N(C)C)c3F)C2)cc1` [Example 1.98], with 967 nM; and `CC(=O)N[C@@H](C)c1ccc(O[C@@H]2CCN(c3nccc(N4CCCC4)c3F)C2)cc1` [Example 1.99], with 201 nM; and `CC(=O)N[C@@H](C)c1ccc(O[C@@H]2CCN(c3nccc(N(C)CC4CC4)c3F)C2)cc1` [Example 1.100], with 385 nM.
With `CC(=O)N[C@@H](C)c1ccc(O[C@@H]2CCN(c3ccnc(N4CCC4)c3F)C2)cc1` [Example 1.101], inhibition was half-maximal at 92 nM (IC50).
The same measure for `CC(=O)N[C@@H](C)c1ccc(O[C@@H]2CCN(c3ccnc(N4CCCCC4)c3F)C2)cc1` [Example 1.102]: 61 nM; for `CCCN(C)c1nccc(N2CC[C@@H](Oc3ccc([C@H](C)NC(C)=O)cc3)C2)c1F` [Example 1.103]: 70 nM; for `CC(=O)N[C@@H](C)c1ccc(O[C@@H]2CCN(c3ccnc(N4CCC5(CC5)C4)c3F)C2)cc1` [Example 1.104]: 24 nM.
The same measure for `CC(=O)N[C@@H](C)c1ccc(O[C@@H]2CCN(c3ccnc(N4CC(F)(F)C4)c3F)C2)cc1` [Example 1.105]: 59 nM.
The same measure for `COCCN(C)c1nccc(N2CC[C@@H](Oc3ccc([C@H](C)NC(C)=O)cc3)C2)c1F` [Example 1.106]: 69 nM; for `CCCNc1nccc(N2CC[C@@H](Oc3ccc([C@H](C)NC(C)=O)cc3)C2)c1F` [Example 1.107]: 52 nM; for `CC(=O)N[C@@H](C)c1ccc(O[C@@H]2CCN(c3ccnc(N(C)CC(F)F)c3F)C2)cc1` [Example 1.108]: 42 nM.
With `COC1CN(c2nccc(N3CC[C@@H](Oc4ccc([C@H](C)NC(C)=O)cc4)C3)c2F)C1` [Example 1.109], the 50% inhibitory concentration (IC50) was 155 nM. Against the preceding molecule, the IC50 is about 3.7-fold higher.
Take `CC(=O)N[C@@H](C)c1ccc(O[C@@H]2CCN(c3ccnc(N4CCC(F)(F)C4)c3F)C2)cc1` [Example 1.110]: the midpoint of inhibition, the IC50, lay at 23 nM.
Take `CC(=O)N[C@@H](C)c1ccc(O[C@@H]2CCN(c3ccnc(N(C)C(C)C)c3F)C2)cc1` [Example 1.111]: inhibition was half-maximal at 112 nM (IC50).
The same measure for `CC(=O)N[C@@H](C)c1ccc(O[C@@H]2CCN(c3ccnc(N(C)CC(F)(F)F)c3F)C2)cc1` [Example 1.112]: 68 nM; for `CC(=O)N[C@@H](C)c1ccc(O[C@@H]2CCN(c3ccnc(NC4CCCC4)c3F)C2)cc1` [Example 1.113]: 163 nM; for `CC(=O)N[C@@H](C)c1ccc(O[C@@H]2CCN(c3ccnc(NCC4CC4)c3F)C2)cc1` [Example 1.114]: 43 nM.
Then `CCNc1nccc(N2CC[C@@H](Oc3ccc([C@H](C)NC(C)=O)cc3)C2)c1F` [Example 1.115], with 260 nM; and `CC(=O)N[C@@H](C)c1ccc(O[C@@H]2CCN(c3ccnc(NCC(F)F)c3F)C2)cc1` [Example 1.116], with 177 nM; and `CC(=O)N[C@@H](C)c1ccc(O[C@@H]2CCN(c3ccc(OC[C@@H]4CC4(F)F)cn3)C2)cc1` [Example 1.117], with 753 nM.
The same measure for `CC(=O)N[C@@H](C)c1ccc(O[C@@H]2CCN(c3ccc(OC[C@H]4CC4(F)F)cn3)C2)cc1` [Example 1.118]: 39 nM; for `COCCNc1nccc(N2CC[C@@H](Oc3ccc([C@H](C)NC(C)=O)cc3)C2)c1F` [Example 1.119]: 1330 nM.
For `COc1c(N2CC[C@@H](Oc3ccc([C@H](C)NC(C)=O)cc3)C2)ccnc1OCC(C)C` [Example 1.120], half-maximal inhibition (IC50) was put at 32 nM.
In the case of `CCCOc1nccc(N2CC[C@@H](Oc3ccc([C@H](C)NC(C)=O)cc3)C2)c1OC` [Example 1.121], the IC50 was found to be 41 nM.
In turn, `COc1cc(N2CC[C@@H](Oc3ccc([C@H](C)NC(C)=O)cc3)C2)cnc1OCC1CC1` [Example 1.122] yielded an IC50 of 2710 nM.
In turn, `CC(=O)N[C@@H](C)c1ccc(O[C@@H]2CCN(c3ccc(OCC4CC(F)(F)C4)cn3)C2)cc1` [Example 1.123] came in with an IC50 of 228 nM.
Then `CC(=O)N[C@@H](C)c1ccc(O[C@@H]2CCN(c3ccnc(N4CCC(F)(F)C4)c3C)C2)cc1` [Example 1.124], with 76 nM; and `CC(=O)N[C@@H](C)c1ccc(O[C@@H]2CCN(c3ccnc(N4CCCC4)c3C)C2)cc1` [Example 1.125], with 402 nM.
